Assays:
[1] = Dynamic moisture sorption (DMS) assessment; type: physicochemical; settings: for crystalline form after the DMS experiment (by PXRD, DSC, TGA): 5% RH to 90% RH adsorption/desorption, 25° C.; for moisture picked up during the adsorption segment (DMS): 5% RH to 90% RH, isothermal 25° C., desorption matches adsorption, no hysteresis
Experimental: Dynamic moisture sorption (DMS) measurements were performed for each crystalline form using a VTI atmospheric microbalance, SGA-100 system (VTI Corp., Hialeah, Fla. 33016). A weighed sample was used and the humidity was set at the ambient value at the start of the analysis. The DMS analysis consisted of a scan rate of 5% RH/step over the full humidity range of 5% relative humidity (RH) to 90% RH. The DMS run was performed isothermally at 25° C.

[2] = Slurry conversion of mixed anhydrous Form I and Form II in MTBE:water (95:5); type: physicochemical; settings: equal amounts Form I and Form II, room temperature, three days
Experimental: Equal amounts (˜50 mg) of anhydrous Form I and anhydrous Form II were weighed out and physically mixed in a vial with a spatula. A solution of MTBE:water (95:5) was added to this solid mixture and stirred to form a suspension. The suspension was stirred at room temperature for three days and filtered through a filter paper. The solid residue was allowed to dry under ambient conditions and analyzed with powder X-ray diffractometry and DSC.

crystalline form after the DMS experiment (by PXRD, DSC, TGA) [1] | moisture uptake between 60% RH and 65% RH (DMS adsorption segment) ([1]; gradual uptake until 60% RH, isotherm flat 65% RH to 90% RH, moisture not lost on desorption) | anhydrous Form II content of the filtered solid (PXRD) [2] [%] | form conversion under slurry conditions [2] | moisture picked up during the adsorption segment (DMS) [1] | Compound
converted to the monohydrate form | rapid | > 95 | converted to anhydrous Form II | – | CS(=O)(=O)C[C@@H](Oc1ccc(C(F)(F)F)cc1)[C@H]1CCNC1 [anhydrous Form I, (S)-3-[(S)-2-methanesulfonyl-1-(4-trifluoromethylphenoxy)ethyl]pyrrolidine]
remains as the monohydrate form | – | – | – | less than 1 % by weight | CS(=O)(=O)C[C@@H](Oc1ccc(C(F)(F)F)cc1)[C@H]1CCNC1 [monohydrate, (S)-3-[(S)-2-methanesulfonyl-1-(4-trifluoromethylphenoxy)ethyl]pyrrolidine]
remains as Form II | – | – | – | less than 1 % by weight | CS(=O)(=O)C[C@@H](Oc1ccc(C(F)(F)F)cc1)[C@H]1CCNC1 [anhydrous Form II, (S)-3-[(S)-2-methanesulfonyl-1-(4-trifluoromethylphenoxy)ethyl]pyrrolidine]

Source: patent publication US8969403B2, “Crystalline forms of a 3-[2-methanesulfonyl-1-(4-trifluoromethyl-phenoxy)ethyl]pyrrolidine compound” (Theravance Biopharma R&D IP, LLC, priority 2011, dated 2015)
